Laboratory results published in patent publication US6384249B1, “Compounds and methods for stabilization of furfural compositions” (Hercules, Inc., priority 2000, dated 2002).
Values joined by “and” are separate entries in the source; they are usually repeats but may differ in a detail not shown here. Equal values may be shown once.

Assay: Accelerated air oxidation of furfural, Total Acid Number (TAN) by potentiometric titration
Conditions: 25 psig air, 300° F., 2 hours
Protocol: In this example, distilled furfural was treated with prospective stabilizers, over-pressured with 25 psig of air, heated to 300° F., and held at temperature for 2 hours to allow for an accelerated rate of furfural oxidation. Total Acid Number (TAN) titrations were then conducted by potentiometric titration on the treated furfural samples, an untreated (blank), and a sample of the original distilled material (control), which was not heated to 300° F. The acid number, expressed as mg KOH/g, is a measure of the acid generated during air oxidation of furfural. Performance of inhibitors was expressed as a percent inhibition by the following equation: […]

CCC(C)Nc1ccc(NC(C)CC)cc1 (stereo not shown) [Compound #1]
% Inhibition @ ppmA (250 ppmA stabilizer): 69%
% Inhibition @ ppmA (500 ppmA stabilizer): 106% and 114%
% Inhibition @ ppmA (1000 ppmA stabilizer): 88% and 170%
% Inhibition @ ppmA (2000 ppmA stabilizer): 57%

CC(C)CC(C)N=C1C=CC(=Nc2ccccc2)C=C1 (stereo not shown) [Compound #4]
% Inhibition @ ppmA (250 ppmA stabilizer): 48%
% Inhibition @ ppmA (500 ppmA stabilizer): 76%
% Inhibition @ ppmA (1000 ppmA stabilizer): 95%

CCC(C)CC(C)Nc1ccc(Nc2ccccc2)cc1 (stereo not shown) [Compound #2]
% Inhibition @ ppmA (250 ppmA stabilizer): 15%
% Inhibition @ ppmA (500 ppmA stabilizer): 37%
% Inhibition @ ppmA (1000 ppmA stabilizer): 56%

Cc1cc(C(C)(C)C)c(O)c(C(C)(C)C)c1 [Compound #3, 2,6-di-tert-butyl-4-methylphenol]
% Inhibition @ ppmA (250 ppmA stabilizer): −10%
% Inhibition @ ppmA (500 ppmA stabilizer): −5%
% Inhibition @ ppmA (1000 ppmA stabilizer): 12%
